Legend:
[1] = system: intestinal tumors of Apc^Min/+ mice; experiment: Intestinal cancer model in Apc^Min/+ mice, BAMLET oral gavage, tumor enumeration and histology; format: in vivo
Description: Apc^Min/+ mice were obtained from Jackson Laboratories at about eight weeks of age. Genotyping was performed by PCR analysis of genomic DNA obtained from blood collected from the retro-orbital sinus. Multiple tumors were developed in the small intestine at eight to ten weeks. Mice were acclimated for about two weeks at the local animal facility at BMC, Lund University in order to reduce stress from transportation.
For BAMLET therapeutic protocol, ten-week-old female mice (n=10 per group) were orally gavaged with 20 mg of BAMLET in 400 μl PBS, twice daily for ten days. Mice were not given water or food five hours prior to BAMLET administration. Food and water were provided 30 minutes after BAMLET oral administration. Sham treated mice were gavaged with 400 μl PBS. Mice were sacrificed two weeks and five weeks after the end of the treatment and intestinal tissue samples were collected for further analysis.
Mice were sacrificed by isoflurane inhalation. Tumor enumeration and sample collection was presented as previously described^28. Tumor numbers and size were determined using a dissecting microscope (Olympus) and evaluated by three blinded investigators.
The opened intestinal segments were spread flat between sheets of filter paper and fixed overnight in 10% neutral buffered formalin. Formalin-fixed sections were transferred to 70% ethanol and stained with 0.2% methylene blue (Sigma, #M9140). Stained sections were rinsed in deionized water and imaged by a dissecting microscope.
(§1) Swiss rolls of longitudinally opened intestinal segments were fixed overnight in 10% neutral buffered formalin. Samples were embedded in paraffin and 5 μm thick sections were further processed for histology and immunohistochemistry using antibodies for bovine alpha-Lactalbumin (ThermoFisher Scientific, Cat #A10-128A), β-catenin (CellSignaling, Cat #9562), Cyclin D1 (ThermoFisher Scientific, Cat #SC8396), Ki-67 (BD Biosciences, Cat #556003), VEGF (Abcam, Cat #ab46154), PD-1 (Abcam, Cat #ab214421) and TTF-1 (Abcam, Cat #ab227652) as previously described^28 with slight modifications. Citrate buffer (Dako Target Retrieval Solution, Agilent, Cat #S1699) was used for antigen retrieval for Cyclin D1, Ki-67, VEGF, bovine alpha-Lactalbumin and β-catenin staining. EDTA buffer (Abcam, Cat #ab64216) was used for antigen retrieval for TTF-1 staining. Immunohistochemistry was quantified by ImageJ. For Hematoxylin-Eosin (H&E) staining, Hematoxylin (ThermoFisher Scientific, Cat #7211) was used followed by Eosin-Y (ThermoFisher Scientific, Cat #7111) for counterstaining. Images were captured using the AX10 microscope or the Hamamatzu Nanozoomer scanner (Carl Zeiss) and the DAB-positive beta-catenin antibody fields (4-10) for each organ cross-sections were quantified by ImageJ.

[2] = system: DLD1 colorectal carcinoma cells; experiment: Live cell imaging assay, cellular uptake of labelled BAMLET; format: cell-based, human; settings: 21 μM, one hour
Description: To visualize the cellular uptake of BAMLET, cells were seeded on 6-well ibidi chambers (3.5×10^4 cells/well) overnight and then treated with Janelia Fluor-549 labeled (TOCRIS, Cat #6147) BAMLET mixed with unlabelled BAMLET (21 μM) for one hour at 37° C. The nuclei were counterstained for five minutes with DAPI (Abcam Cat #ab228549, 1:1,000) and uptake of labelled BAMLET was captured with the LSM 900 laser scanning confocal microscope with oil immersion ×63 objectives (Carl Zeiss).

[3] = system: intestine of tumor bearing APC^Min/+ mice; experiment: Real-time in vivo fluorescence imaging and immunohistochemistry of BAMLET in tumor-bearing mice
From the text: as §1
BAMLET was labeled using VivoTag 680XL Protein Labeling Kit (Perkin Elmer). Apc^Min/+ mice were orally gavaged with 10 mg of VivoTag 680-labelled BAMLET in 200 μl of PBS. The intestinal tissue samples were collected after 24 hours or 48 hours and imaged using an IVIS Spectrum imaging system (Perkin Elmer). BAMLET signal was acquired at fluorescent settings with 680 nm excitation.

[4] = system: DLD1 colorectal adenocarcinoma cells; experiment: TUNEL assay; format: cell-based, human; settings: 7 μM, 21 μM and 35 μM, one hour
Description: DNA fragmentation was detected using the terminal deoxynucleotidyl transferase dUTP nick end-labeling (TUNEL) assay (Click-IT TUNEL Alexa Fluor 488 imaging assay kit, ThermoFisher Scientific, #C10245). DLD1 cells were seeded in 8-well chamber slide (2×10^4 cells/well) cultured overnight (37° C., 5% CO2) and incubated with BAMLET 7 μM, 21 μM and 35 μM for one hour in serum-free RPMI-1640 at 37° C. Cells were fixed (2% PFA, 15 minutes), permeabilized (0.25% Triton X-100 in PBS, 20 minutes) and incubated with TUNEL reaction mixture containing TdT for 60 minutes at 37° C. After the TUNEL reaction, cells were incubated with Click-iT reaction mixture for 30 minutes. Cells were counterstained with Hoechst 33342 (1:1000, 15 minutes, ThermoFisher Scientifi, Cat #62249), mounted in Fluoromount aqueous mounting media (Sigma, Cat #4680), and examined by LSM 900 confocal microscopy (Carl Zeiss). Fluorescence intensities were quantified by ImageJ.

[5] = system: HT29 cells; experiment: Colony assay; format: cell-based, human; settings: HT29, 7, 21 and 35 μM
Description: (§2) Cells were seeded on 12-well plates (1×10^3 cells/well) and incubated overnight. Cells were treated with different complexes: BAMLET (7, 21, and 35 μM) or alpha1-oleate (7, 21, and 35 μM) in serum-free media and incubated for one hour at 37° C., 5% CO2. The incubation was continued after the addition of FCS to the media. On day ten post-treatment, the cells were washed once and fixed with cold methanol (300 μl) for 15 minutes on ice. Finally, colonies of cells were stained with hematoxylin (ThermoFisher Scientific, Cat #7211) for five minutes and images were captured under a dissecting microscope (Carl Zeiss). The experiment was repeated twice for each cell line.

[6] = system: DLD1 cells; experiment: Colony assay; format: cell-based, human; settings: DLD1, 7, 21 and 35 μM
Description: as §2

[7] = system: Wnt/β-catenin signaling pathway; experiment: Gene expression analysis of lungs, livers and kidneys of Apc^Min/+ mice; format: in vivo; settings: BAMLET treated compared to sham treated Apc^Min/+ mice
[8] = system: healthy C57BL/6 mice; experiment: BAMLET in healthy C57BL/6 mice: macroscopic inspection and intestinal gene expression analysis
Description: Approximately 5 mg of tissue was homogenized using a Tissuelyser (Qiagen) and total RNA was extracted using the RNeasy kit (Qiagen), amplified using a GeneChip 3'IVT Express Kit, hybridized onto Mouse Genome 430 PM array strips, and scanned using the GeneAtlas system (Affymetrix). Data was normalized using Robust Multi Average implemented in the Transcriptome Analysis Console software (v.4.0.1.36, Applied Biosystems, ThermoFisher Scientific). Relative expression was analyzed by ANOVA using the empirical Bayes method, and genes with an absolute fold change >1.5 or 2.0 were considered differentially expressed.
To identify effects on healthy tissues, healthy C57BL/6 mice received BAMLET by oral gavage or in the drinking water (FIG. 6). The effects were evaluated by macroscopic inspection of intestinal tissues and gene expression analysis.

[9] = system: VEGF, Ki67, Cyclin D1 and β-catenin; experiment: Immunohistochemistry of intestinal sections for tumor markers; format: in vivo, mice; settings: vs sham
From the text: as §1

Substance: BAMLET
- total polyp number ([1]; 20 mg gavage twice daily for ten days, two and five weeks post oral gavage, vs sham): lower
- number of small tumors, fully formed polyps and confluent tumors along the intestinal wall ([1]; Apc^Min/+ mice, H&E sections, BAMLET vs sham (PBS)): reduced
- tumor areas ([1]; BAMLET treated Apc^Min/+ mice vs sham group, FIG. 1f): smaller
- villus structure ([1]; after short-term BAMLET treatment, H&E sections): normal villus structure was detected in the majority of sections
- uptake of labelled BAMLET [2]: rapidly internalized into the cytoplasm and nuclei
- retention of VivoTag 680-labeled BAMLET in the intestine ([3]; 18-week-old APC^Min/+ mice, oral gavage, after 24 and 48 hours): Significant retention
- time retained in tumor tissue ([3]; after the first oral dose): at least 48 hours
- BAMLET staining in intestinal tissue sections ([3]; immunohistochemistry with BAMLET specific antibodies): detected
- TUNEL staining (DNA strand breaks) [4]: Dose-dependent increase
- colony-forming cells after ten days [5]: lasting effect
- colony-forming cells after ten days [6]: lasting effect
- Wnt/β-catenin signaling pathway in lungs, livers and kidneys (gene expression) [7]: down-regulated
- inflammatory or necrotic changes in the intestines or peripheral organs ([8]; gavage or drinking water, vs untreated controls): no evidence of inflammatory or necrotic changes
- genes involved in lipid metabolism, glucose metabolism, insulin tolerance and immune regulation ([8]; intestinal tissue): significantly affected
- toxic response (gene expression) ([8]; intestinal tissue): no evidence of a toxic response
- number of regulated genes ([8]; intestinal tissue, cut-off fold change ≥1.5, P<0.05): about 150 genes
- macroscopic appearance of tissues outside the intestinal tract ([8]; mouse, in vivo): No changes in macroscopic appearance
- organ weights ([8]; mouse, in vivo): no change in organ weights
- expression of tumor markers VEGF, Ki67, Cyclin D1 and β-catenin ([9]; intestinal sections, five weeks post gavage and eight weeks drinking water): less strongly expressed
- β-catenin staining of intestinal sections ([9]; long-term BAMLET in drinking water): markedly reduced
